Source: patent publication US6160008A, “Pharmaceutical compositions comprising S-alkylisothiouronium derivatives” (priority 1996, dated 2000)
Entries after “also recorded” stand apart in the source; their conditions may differ.

What was measured:
[1] = test system: system hemodynamic indices during hemorrhagic shock; experiment: System hemodynamic indices during hemorrhagic shock (Table 4); assay type: in vivo, cats
Method: For the experimental model of hemorrhagic shock closely resembling acute clinical situations, acute blood loss in cats was chosen (3.2% of the body mass) which constitutes 45-47% of the blood circulation volume during 3-5 minutes. To determine maximum efficiency and effective duration, parameters of the system blood circulation were determined before blood-letting and in 30 minutes after blood-letting, as well as on the 2nd, 10th, 30th and 60th minutes after intravenous injection of the medicine.

[2] = Biochemical indices of mice blood serum, acute experiment (Table 8); assay type: in vivo, F1 (C57B1×CBA); details: 500 mg/kg i.v.; for Total protein: in g/L (unit assumed)
Method: The effect of S-ethylisothiouronium diethylphosphate on body constituents was estimated in chronic and acute experiments. These experiments were conducted on F1 (C57B1×CBA) line mice and biochemical tests were made after a single administration of S-ethylisothiouronium diethylphosphate, injected intravenously at doses of 100 mg/kg (in the chronic experiment) and 500 mg/kg (in the acute experiment).
In the acute experiment, blood was taken 30, 60 and 75 minutes after the administration of the medicine. In the chronic experiment (which lasted 30 days), blood was daily examined 1 hour after the injection. Terms of the study were 1, 7, 14, and 21 days. The concentrations of total protein, total cholesterol, and glucose in mice blood serum were determined by conventional methods. Total protein was determined by a biuret method, total cholesterol--by like method, glucose--by the glucose-oxidase method.
Mouse blood was obtained after rapid decapitation. Tested material was sampled at the same time of the day and on the same season.
Blood for serum was sampled into centrifuge test tubes, put into the thermostat for 30-40 minutes; the clot was outlined by a needle, then it was put into a refrigerator for 1 hour+4° C. After cooling it was centrifuged at 3000 RPM during 10-15 minutes. Serum with no signs of hemolysis was sampled into a clean tube. All quantitative indices of the blood biochemical characteristics were obtained by spectrophotometric measurements. Calibration curves to determine total protein and cholesterol were constructed in advance.

[3] = test system: mice exposed to an oxygen pressure of 3 atm; experiment: Survival under oxygen pressure of 3 atm, mice (Table 15); assay type: in vivo, F1 (CBAx57B1); details: for Number of survived animals: mice, 3 atm, 5 hours
Method: (§1) Animals were exposed to oxygen under increased pressure in a hyperbaric chamber <<Mana-2≤≤ for treatment of infants above 1 year, which was adjusted for the experiments on animals. The hyperbaric chamber design permitted to create excessive pressure up to 3 atm and to observe animal behavior from outside.
(§2) The experiments were performed on males of F1 (CBAx57B1) mice line and on males of Wistar rat line. Animals were placed in the hyperbaric chamber in plastic boxes and the atmospheric air was replaced by oxygen. The period of compression-decompression was 10 minutes. The exposure of the animals to an oxygen pressure of 3 atm during a period of 2 hours caused only some increase in their motion activity. Further staying of rats and mice in those conditions led to a decrease in the motion activity, to asphyxia with short periods of excitement and cramps. The death of some animals was registered after 2.5-3 hours, 50% after 4 hours, and 75% of mice and 100% of rats were dead after 5 hours.
(§3) When the influence of Difetur and Etyron was studied, the animals were exposed to an oxygen pressure of 3 atm during 5 hours if not otherwise specified. Preparations were injected 5-10 minutes before the session.

[4] = Lung coefficient under hyperbaric oxygen (3 atm); assay type: in vivo, mice and rats; details: for Lung coefficient (lung mass/body mass X100): hyperbaric oxygen
Method: as §1, §2, §3
After the session the dead animals were autopsied, their lungs were removed, and the index <<lung mass in gr./body mass in gr. X100>> (i.e. lung coefficient) was defined.

[5] = test system: rats exposed to an oxygen pressure of 6 atm; experiment: Toxic effect of oxygen at a pressure of 6 atm in rats (Tables 16-18); assay type: in vivo, white rats; details: 20 mg/kg i.p.
Method: Experiments on the toxic effect of oxygen at a pressure of 6 atm were carried out similarly in a hyperbaric chamber C-203 (chamber volume 0.45 m^3), on white rats, during 50 minutes. The preparation was injected intraperitoneally at a dose of 20 mg/kg. In the controls, 2 ml/kg of water for injections was injected intraperitoneally. After decompression the rats were decapitated and the glucose content, urea content, ureal nitrogen and total hemoglobine content were determined in the blood serum, as well as the index <<lung mass in gr./body mass in gr. X 100>> (i.e. lung coefficient).

[6] = 5 mg/kg i.v., 2 min after injection
[7] = 5 mg/kg i.v., 10 min after injection
[8] = 5 mg/kg i.v., 30 min after injection
[9] = 5 mg/kg i.v., 60 min after injection

Compound: CCSC(=N)N [S-ethylisothiouronium diethylphosphate]
- AP increase compared to the 30th minute after bleeding ([1]; 5 mg/kg i.v., 2nd minute): 88%
- ALV [1, 6]: 166.6 ± 18.4 g/cm
- AP [1, 6]: 122.3 ± 6.0 mm Hg
- Central blood volume [1, 6]: 58.6 ± 4.1 mL
- HF [1, 6]: 182.0 ± 15.0 per min.
- MVC [1, 6]: 52.4 ± 6.0 mL/min/kg
- Number of blood circulations [1, 6]: 2.9 ± 0.2 min
- Pr [1, 6]: 202.8 ± 28.7 10^3 . din . c . cm^-3
- Stroke volume [1, 6]: 1.0 ± 0.1 mL
- ALV [1, 7]: 130.5 ± 15.4 g/cm
- AP [1, 7]: 112.5 ± 7.6 mm Hg
- Central blood volume [1, 7]: 49.2 ± 4.5 mL
- HF [1, 7]: 186.0 ± 14.1 per min.
- MVC [1, 7]: 46.0 ± 5.7 mL/min/kg
- Number of blood circulations [1, 7]: 3.0 ± 0.2 min
- Pr [1, 7]: 225.1 ± 56.6 10^3 . din . c . cm^-3
- Stroke volume [1, 7]: 0.9 ± 0.1 mL
- ALV [1, 8]: 75.9 ± 19.4 g/cm
- AP [1, 8]: 87.5 ± 15.4 mm Hg
- Central blood volume [1, 8]: 43.2 ± 4.7 mL
- HF [1, 8]: 179.1 ± 12.4 per min.
- MVC [1, 8]: 30.8 ± 5.5 mL/min/kg
- Number of blood circulations [1, 8]: 2.4 ± 0.3 min
- Pr [1, 8]: 244.7 ± 39.1 10^3 . din . c . cm^-3
- Stroke volume [1, 8]: 0.6 ± 0.1 mL
- ALV [1, 9]: 77.0 ± 17.0 g/cm
- AP [1, 9]: 84.2 ± 18.9 mm Hg
- Central blood volume [1, 9]: 45.5 ± 5.1 mL
- HF [1, 9]: 166.8 ± 15.2 per min.
- MVC [1, 9]: 35.7 ± 5.5 mL/min/kg
- Number of blood circulations [1, 9]: 3.5 ± 0.2 min
- Pr [1, 9]: 245.3 ± 62.6 10^3 . din . c . cm^-3
- Stroke volume [1, 9]: 0.7 ± 0.1 mL
- MVC increase ([1]; 5 mg/kg i.v., initially): 19%
- Effect in hemorrhagic shock in words ([1]; hemorrhagic shock, cats): the decrease in HR was noted; also recorded: SV increased only on the 2nd minute after the medicine injection; also recorded: Alv essentially increased on the 2nd and 10th minutes; also recorded: PR increased during the whole period of observation; also recorded: practically does not lose efficiency in case of metabolic acidosis; also recorded: improves system hemodynamic indices in hemorrhagic shock conditions; also recorded: the peripheral vascular resistance increases, the stroke volume and central blood volume increase, and the work of the left ventricle improves
- Body mass ([2]; 30 min): 24.8 ± 1.2 g
- Glucose ([2]; 30 min): 13.4 ± 2.6 mmol/L
- Total cholestrol ([2]; 30 min): 7.8 ± 1.2 mmol/L
- Total protein ([2]; 30 min): 99.0 ± 4.3
- Serum biochemistry in words ([2]; 30 minutes): an increase in the concentration of total protein, cholesterol and glucose was observed, which subsequently had the tendency for normalization
- Body mass ([2]; 60 min): 26.1 ± 1.8 g
- Glucose ([2]; 60 min): 9.0 ± 0.8 mmol/L
- Total cholestrol ([2]; 60 min): 7.2 ± 1.6 mmol/L
- Total protein ([2]; 60 min): 89.4 ± 4.6
- Body mass ([2]; 75 min): 26.0 ± 0.5 g
- Glucose ([2]; 75 min): 6.6 ± 1.0 mmol/L
- Total cholestrol ([2]; 75 min): 5.4 ± 1.2 mmol/L
- Total protein ([2]; 75 min): 87.6 ± 3.8
- Number of survived animals ([3]; 5 mg/kg): 25%
- Number of survived animals ([3]; 10 mg/kg): 65%
- Number of survived animals ([3]; 20 mg/kg): 88%
- Oxygen protective activity compared with Etyron ([3]; mouse, in vivo): exceed Etyron in oxygen protective activity
- Lung coefficient (lung mass/body mass X100) ([4]; 5 mg/kg): 0.95±0.09
- Lung coefficient (lung mass/body mass X100) ([4]; 10 mg/kg): 0.97±0.09
- Lung coefficient (lung mass/body mass X100) ([4]; 20 mg/kg): 0.88±0.08
- Lung protection in words ([4]; in vivo): considerable protective efficiency regarding the lung tissue
- Asphyxia, animal number ([5]; 36 rats): 0
- Generalized cramps, % of animals ([5]; 36 rats): 2.8%
- Generalized cramps, animal number ([5]; 36 rats): 1
- Lateral position, animal number ([5]; 36 rats): 0
- Number of perished rats ([5]; 36 rats): 0
- Lung coefficient (lung mass in gr./body mass in gr. X 100) ([5]; Average ± SD, 16 animals): 0.474 ± 0.024
- Glucose (blood serum) ([5]; M ± m, n = 16): 5.765 ± 0.214
- Hemoglobin (blood serum) ([5]; M ± m, n = 16): 2.028 ± 0.048
- Urea (blood serum) ([5]; M ± m, n = 16): 4.643 ± 0.212
- Urea Nitrogen (blood serum) ([5]; M ± m, n = 16): 2.163 ± 0.099
- Protection at 6 atm in words ([5]; rats, listed as Difetur): improve blood serum biochemical indices; also recorded: efficiently protect lungs from the toxic effect of increased oxygen pressure; also recorded: did not practically effect the hemoglobin content but considerably improved other indices; also recorded: significantly reduced the <<lung mass in gr./body mass>> index; also recorded: completely prevented animals' death and reduced other visible consequences of the oxygen poisoning
